Results from patent US9955691B2, “Macrocyclic picolinamides as fungicides” (DOW AGROSCIENCES LLC, priority 2014, dated 2018).
Like-named read-outs stand apart in the source and are kept apart here.

What was measured:
[1] = system: Mycosphaerella graminicola; Anamorph: Septoria tritici; test: Fungicidal activity: Leaf Blotch of Wheat (SEPTTR); type: in vivo; settings: Zymoseptoria tritici, wheat leaf blotch; for pest or weed control at 121.5 g/ha: Low Volume (121.5 g/H); for pest or weed control at 100 µg/mL: High Volume (100 ppm)
Method in brief: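 Compounds were dissolved in acetone, diluted with nine volumes of water containing 110 ppm Triton X-100, and sprayed to run-off on first-leaf Yuma wheat seedlings inoculated with Septoria tritici spores before or after treatment. Plants were held in a dew chamber, then a 20° C. greenhouse. Percent control was derived from disease severity relative to untreated plants.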

[2] = system: Puccinia triticina; test: Fungicidal activity: Wheat Brown Rust (PUCCRT); type: in vivo; settings: for pest or weed control at 121.5 g/ha: Low Volume (121.5 g/H); for pest or weed control at 100 µg/mL: High Volume (100 ppm)
Method in brief: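 Wheat seedlings (Yuma, first leaf) sprayed to run-off with compound in acetone/water with Triton X-100, inoculated with Puccinia triticina before or after treatment. Held overnight in dark dew at 22° C, then greenhouse at 24° C; percent disease control from severity versus untreated plants.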

[3] = 24 h, 1 Day Protectant, read-out: SEPTTR 1 DP disease control
[4] = 72 h, 3 Day Curative, read-out: SEPTTR 3 DC disease control
[5] = 24 h, 1 Day Protectant, read-out: PUCCRT 1 DP disease control
[6] = 72 h, 3 Day Curative, read-out: PUCCRT 3 DC disease control

Row | SMILES | pest or weed control at 121.5 g/ha [1, 3] | pest or weed control at 121.5 g/ha [1, 4] | pest or weed control at 121.5 g/ha [2, 5] | pest or weed control at 121.5 g/ha [2, 6] | melting point | pest or weed control at 100 µg/mL [1, 3] | pest or weed control at 100 µg/mL [1, 4] | pest or weed control at 100 µg/mL [2, 5] | pest or weed control at 100 µg/mL [2, 6]
1 | COc1ccnc(C(=O)N[C@H]2COC[C@H](CCCc3ccccc3)[C@@H](CCc3ccccc3)[C@H](C)OC2=O)c1OCOC(C)=O [compound 67] | < 70% | < 70% | < 70% | < 70% | 37 to 40 °C |  |  |  | 
2 | COc1ccnc(C(=O)N[C@H]2COC[C@H](CCC(C)C)[C@@H](C3CCCC3)[C@H](C)OC2=O)c1O [compound 150] |  |  |  |  | 38 to 43 °C | > 70% | > 70% | > 70% | > 70%
3 | COCCC(=O)Oc1c(OC)ccnc1C(=O)N[C@H]1COC[C@H](Cc2ccc(Cl)cc2)[C@@H](C2CCCC2)[C@H](C)OC1=O [compound 106, 2-(((3S,7R,8R,9S)-7-(4-chlorobenzyl)-8-cyclopentyl-9-methyl-2-oxo-1,5-dioxonan-3-yl)carbamoyl)-4-methoxypyridin-3-yl 3-methoxypropanoate] | > 70% | > 70% | > 70% | > 70% | 55 to 60 °C |  |  |  | 
4 | COc1ccnc(C(=O)N[C@H]2COC[C@H](CC3CC3)[C@@H](Cc3ccccc3)[C@H](C)OC2=O)c1O [compound 140] |  |  |  |  | 56 to 61 °C | > 70% | < 70% | > 70% | < 70%
5 | CCC[C@H]1COC[C@H](NC(=O)c2nccc(OC)c2OC(C)=O)C(=O)O[C@@H](C)[C@@H]1Cc1ccc(F)cc1 [compound 107] | > 70% | > 70% | > 70% | > 70% | 57 to 62 °C |  |  |  | 
6 | COc1ccnc(C(=O)N[C@H]2COC[C@H](c3ccccc3)[C@@H](c3ccccc3)[C@H](C)OC2=O)c1O [compound 116] |  |  |  |  | 64 to 72 °C | > 70% | < 70% | > 70% | > 70%
7 | COc1ccnc(C(=O)N[C@H]2COC[C@H](Cc3ccc(C(F)(F)F)cc3)[C@@H](CC(C)C)[C@H](C)OC2=O)c1OC(C)=O [compound 72] | > 70% | > 70% | > 70% | > 70% | 75 to 79 °C |  |  |  | 
8 | COc1ccnc(C(=O)N[C@H]2COC[C@H](CCCc3ccccc3)[C@@H](CCc3ccccc3)[C@H](C)OC2=O)c1O [compound 139] |  |  |  |  | 48 to 52 °C | < 70% | < 70% | > 70% | < 70%
9 | COc1ccnc(C(=O)N[C@H]2COC[C@H](CCC(C)C)[C@@H](C3CCCC3)[C@H](C)OC2=O)c1OCOC(C)=O [compound 93] | > 70% | < 70% | > 70% | < 70% | 47 to 53 °C |  |  |  | 
10 | COc1ccnc(C(=O)N[C@H]2COC[C@H](Cc3ccccc3)[C@@H](c3ccccc3)[C@H](C)OC2=O)c1O [compound 132] |  |  |  |  | 185 to 190 °C | > 70% | > 70% | > 70% | > 70%
11 | COc1ccnc(C(=O)N[C@H]2COC[C@H](Cc3ccc(C(F)(F)F)cc3)[C@@H](CC(C)C)[C@H](C)OC2=O)c1OCOC(C)=O [compound 71] | > 70% | > 70% | > 70% | > 70% | 54 to 59 °C |  |  |  | 
12 | COc1ccnc(C(=O)N[C@H]2COC[C@H](Cc3ccc(C(F)(F)F)cc3)[C@@H](CC(C)C)[C@H](C)OC2=O)c1O [compound 141] |  |  |  |  | 66 to 71 °C | > 70% | > 70% | > 70% | > 70%
13 | COc1ccnc(C(=O)N[C@H]2COC[C@H](CC3CC3)[C@@H](Cc3ccccc3)[C@H](C)OC2=O)c1OCOC(C)=O [compound 68] | > 70% | < 70% | > 70% | < 70% | 41 to 45 °C |  |  |  | 
14 | COc1ccnc(C(=O)N[C@H]2COC[C@H](CCC(C)C)[C@@H](C3CCCC3)[C@H](C)OC2=O)c1OC(=O)C(C)C [compound 92, 2-(((3S,7R,8R,9S)-8-cyclopentyl-7-isopentyl-9-methyl-2-oxo-1,5-dioxonan-3-yl)carbamoyl)-4-methoxypyridin-3-yl isobutyrate] | > 70% | > 70% | > 70% | > 70% | 47 to 51 °C |  |  |  | 
15 | COc1ccnc(C(=O)N[C@H]2COC[C@H](CC3CC3)[C@@H](Cc3ccccc3)[C@H](C)OC2=O)c1OCOC(=O)C(C)C [compound 70] | > 70% | > 70% | > 70% | > 70% | 37 to 41 °C |  |  |  | 
16 | COc1cccc(C[C@H]2COC[C@H](NC(=O)c3nccc(OC)c3OCOC(C)=O)C(=O)O[C@@H](C)[C@@H]2Cc2cccc(OC)c2)c1 [compound 17] | > 70% | > 70% | > 70% | < 70% | 51 to 55 °C |  |  |  | 
17 | COc1ccnc(C(=O)N[C@H]2COC[C@H](Cc3ccc(Cl)cc3)[C@@H](C3CCCC3)[C@H](C)OC2=O)c1OCOC(=O)C(C)C [compound 89] | > 70% | > 70% | > 70% | < 70% | 54 to 58 °C |  |  |  | 
18 | COc1ccnc(C(=O)N[C@H]2COC[C@H](Cc3ccccc3)[C@@H](c3ccccc3)[C@H](C)OC2=O)c1OC(C)=O [compound 54] | > 70% | > 70% | > 70% | > 70% | 99 to 103 °C |  |  |  | 
19 | COc1ccnc(C(=O)N[C@H]2COC[C@H](Cc3ccc(Cl)cc3)[C@@H](Cc3ccc(OC(F)(F)F)cc3)[C@H](C)OC2=O)c1OC(C)=O [compound 59] | < 70% | < 70% | < 70% | < 70% | 80 to 85 °C |  |  |  | 
20 | COc1ccnc(C(=O)N[C@H]2COC[C@H](Cc3ccccc3)[C@@H](COc3ccccc3)[C@H](C)OC2=O)c1OCOC(C)=O [compound 96] | > 70% | > 70% | > 70% | < 70% | 56 to 61 °C |  |  |  | 
21 | COc1ccnc(C(=O)N[C@H]2COC[C@H](Cc3ccc(C(F)(F)F)cc3)[C@@H](Cc3ccc(OC(F)(F)F)cc3)[C@H](C)OC2=O)c1OCOC(C)=O [compound 66] | > 70% | > 70% | > 70% | > 70% | 57 to 60 °C |  |  |  | 
